Consider one compound from US7365050B2, “Methods for modulating a drug-related effect or behavior” (The Regents of the University of California, priority 2003, dated 2008).

Data set [1] deals with Cav2.2 null mice and wild-type mice. The method, then:
See Example 2. Mice were injected intraperitoneally with saline and placed in the central, access chamber of a three-chambered apparatus. The door to a second chamber (saline-paired chamber), off the central chamber, was then opened to allow mice access to the second chamber, into which the mice entered. The door was then closed and the mice remained in the second chamber for 5 min before being removed and returned to the home cage. On the following day, the procedure was repeated, except that the mice were given an intraperitoneal injection of ethanol (at the doses indicated in FIG. 2) and allowed to enter, by the same procedure as for the saline-paired side, a third chamber (drug-paired chamber), instead of the saline-paired chamber. The ethanol and saline-paired chambers differed in floor texture and wall color. Drug-paired and saline-paired chambers were assigned randomly, i.e., some mice received ethanol in the same type of chamber in which other mice received saline. This process, saline one day and ethanol the next, was then repeated three times further, resulting in a total of four saline/drug-chamber pairings. On the day immediately following the completion of this 8-day training period, the mice were placed into the central chamber and allowed free access to all three chambers for a total of 30 minutes. Time spent in each of the three chambers was analyzed for each genotype by paired two-tailed t-tests with Bonferroni correction for multiple comparisons. […] To control for a baseline preference for a particular chamber type, all mice received a 30-min test in the chambers prior to training.
Mice were trained in a conditioned place preference (CPP) apparatus (Med Associates, St. Albans, Vt.) that consisted of white and black chambers with different floor textures (black side with rod floor vs. white side with grid floor) that were separated by a central gray access compartment. To measure baseline preference for the test chambers, mice were allowed to roam freely in the entire apparatus for 30 min during the first day of the test. […] The ethanol-paired chamber was assigned randomly across subjects. For conditioning, mice were treated with ethanol (1.2, 2.0, or 2.8 grams/kg v/v in 0.9% saline) and immediately placed in one side for 5 min. On the next day, they were injected with an equivalent volume of saline and placed in the other side. This sequence was repeated four times for a total of 4 days ethanol and 4 days saline, with two rest days halfway through training. On the test day immediately following the final training day, mice were allowed free access to all 3 compartments for 30 min. CPP was assessed by comparing the time spent in the drug-paired chamber on the test day with the time spent in the saline-paired chamber and the central chamber on the test day by paired two-tailed t-tests with Bonferroni correction for multiple comparisons. The mice were considered to have developed CPP for ethanol if they spent more time in the ethanol-paired chamber compared with the other two chambers on the test day.

Data set [2] relates to Cav2.2 null mice and wild-type littermates. The method, then:
Both groups of mice were injected intraperitoneally with ethanol (3.6 g/kg in 0.9% w/v saline) and then assessed for loss of the righting reflex (LORR). Loss of the righting reflex was defined as a mouse being unable to right itself 3 times within 30 sec. Upon losing the righting reflex, mice were placed on their backs and the time taken for them to regain the righting reflex was measured. A mouse was defined as having regained the righting reflex when it was able to right itself 3 times within 30 sec. A blood sample was taken from the tail of each mouse when it regained the righting reflex in order to determine blood ethanol concentration. Blood was centrifuged at 10,000 g and serum blood alcohol concentration determined using an Analox AM-1 analyser (Analox Instruments, Luneburg Mass.). We determined the threshold concentration of ethanol required to induce LORR using the “up-and-down” method (Dixon, 1965; Findlay et al., 2002). […] If the first mouse lost the righting reflex, then the next mouse was given a lower ethanol dose. […] The log dose interval was 0.0138, corresponding to approximately a 0.1 g/kg difference between doses. The ED50 value was determined as described (Findlay et al., 2002), with 95% confidence intervals determined by the following equation: 95% CI=dosing increment×square root of (2/n)×1.96, where n=the last n trials (6) and 1.96 reflects the 0.05 α level (Dixon, 1965).

Data set [3] has the same test system. The conditions noted are these: 2 g/kg ethanol i.p., Cav2.2 null vs wild-type. Here is the method:
Mice were trained to remain for 180 s on a rotarod apparatus (Ugo Basile Biological Research, Varese, Italy) rotating at a fixed rate of 20 rpm. The first test session was carried out the following day. During a test session, each mouse was placed on the rotarod and the time taken for the animal to fall off the rod was recorded. Mice were then injected intraperitoneally with ethanol and re-tested every 15 min for 1 h. […] Three further days later, the mice were trained to remain on an accelerating (4-40 rpm) rotarod for 300s.

The test system is the same in data set [4]. The method, then: The conditioned taste aversion study was carried out according to established protocols ([…] and Boyce, 2002) (Chester et al., 2003). Animals were singly housed and acclimatized to limited water access by allowing them access to water for decreasing periods of time (10, 8, 6 and 4 h per day on subsequent days) followed by 2-h daily access for one week. Following acclimatization, they were placed on the conditioning schedule consisting of 1-h access (13:00 to 14:00h) to the conditioned stimulus (CS, a solution of 1.2% (w/v) saline), followed immediately by a saline (0.9% w/v) injection. […] The following day they were allowed two hours of access to drinking water (13:00 to 15:00). This 2-d procedure constituted a single trial and was repeated 7 times to establish baseline consumption levels of 1.2% NaCl. […] Data were compared by two-way ANOVA with factors for injection and genotype.
This is another data set of the same source.

Data set [5] has the same test system. To be noted: solutions containing 6% or 10% ethanol.
For data set [6] the following is noted: 4 g/kg ethanol i.p., Cav2.2 null vs wild-type.
Data set [7] relates to Cav2.2 null mice and littermates. To be noted: alcohol vapor 3 days, 16 hours per day; Cav2.2 null vs littermates.
Experimental: Handling-induced convulsions (HIC) were measured at various intervals over the next 48 hours.
The target in the next data set is N-type calcium channel (Rattus norvegicus, UniProt Q02294). To be noted: PC12 cells, 25-200 mM ethanol for 2-8 days; cited from earlier work.
N-type calcium channel, sequence (Q02294 whole entry, looked up): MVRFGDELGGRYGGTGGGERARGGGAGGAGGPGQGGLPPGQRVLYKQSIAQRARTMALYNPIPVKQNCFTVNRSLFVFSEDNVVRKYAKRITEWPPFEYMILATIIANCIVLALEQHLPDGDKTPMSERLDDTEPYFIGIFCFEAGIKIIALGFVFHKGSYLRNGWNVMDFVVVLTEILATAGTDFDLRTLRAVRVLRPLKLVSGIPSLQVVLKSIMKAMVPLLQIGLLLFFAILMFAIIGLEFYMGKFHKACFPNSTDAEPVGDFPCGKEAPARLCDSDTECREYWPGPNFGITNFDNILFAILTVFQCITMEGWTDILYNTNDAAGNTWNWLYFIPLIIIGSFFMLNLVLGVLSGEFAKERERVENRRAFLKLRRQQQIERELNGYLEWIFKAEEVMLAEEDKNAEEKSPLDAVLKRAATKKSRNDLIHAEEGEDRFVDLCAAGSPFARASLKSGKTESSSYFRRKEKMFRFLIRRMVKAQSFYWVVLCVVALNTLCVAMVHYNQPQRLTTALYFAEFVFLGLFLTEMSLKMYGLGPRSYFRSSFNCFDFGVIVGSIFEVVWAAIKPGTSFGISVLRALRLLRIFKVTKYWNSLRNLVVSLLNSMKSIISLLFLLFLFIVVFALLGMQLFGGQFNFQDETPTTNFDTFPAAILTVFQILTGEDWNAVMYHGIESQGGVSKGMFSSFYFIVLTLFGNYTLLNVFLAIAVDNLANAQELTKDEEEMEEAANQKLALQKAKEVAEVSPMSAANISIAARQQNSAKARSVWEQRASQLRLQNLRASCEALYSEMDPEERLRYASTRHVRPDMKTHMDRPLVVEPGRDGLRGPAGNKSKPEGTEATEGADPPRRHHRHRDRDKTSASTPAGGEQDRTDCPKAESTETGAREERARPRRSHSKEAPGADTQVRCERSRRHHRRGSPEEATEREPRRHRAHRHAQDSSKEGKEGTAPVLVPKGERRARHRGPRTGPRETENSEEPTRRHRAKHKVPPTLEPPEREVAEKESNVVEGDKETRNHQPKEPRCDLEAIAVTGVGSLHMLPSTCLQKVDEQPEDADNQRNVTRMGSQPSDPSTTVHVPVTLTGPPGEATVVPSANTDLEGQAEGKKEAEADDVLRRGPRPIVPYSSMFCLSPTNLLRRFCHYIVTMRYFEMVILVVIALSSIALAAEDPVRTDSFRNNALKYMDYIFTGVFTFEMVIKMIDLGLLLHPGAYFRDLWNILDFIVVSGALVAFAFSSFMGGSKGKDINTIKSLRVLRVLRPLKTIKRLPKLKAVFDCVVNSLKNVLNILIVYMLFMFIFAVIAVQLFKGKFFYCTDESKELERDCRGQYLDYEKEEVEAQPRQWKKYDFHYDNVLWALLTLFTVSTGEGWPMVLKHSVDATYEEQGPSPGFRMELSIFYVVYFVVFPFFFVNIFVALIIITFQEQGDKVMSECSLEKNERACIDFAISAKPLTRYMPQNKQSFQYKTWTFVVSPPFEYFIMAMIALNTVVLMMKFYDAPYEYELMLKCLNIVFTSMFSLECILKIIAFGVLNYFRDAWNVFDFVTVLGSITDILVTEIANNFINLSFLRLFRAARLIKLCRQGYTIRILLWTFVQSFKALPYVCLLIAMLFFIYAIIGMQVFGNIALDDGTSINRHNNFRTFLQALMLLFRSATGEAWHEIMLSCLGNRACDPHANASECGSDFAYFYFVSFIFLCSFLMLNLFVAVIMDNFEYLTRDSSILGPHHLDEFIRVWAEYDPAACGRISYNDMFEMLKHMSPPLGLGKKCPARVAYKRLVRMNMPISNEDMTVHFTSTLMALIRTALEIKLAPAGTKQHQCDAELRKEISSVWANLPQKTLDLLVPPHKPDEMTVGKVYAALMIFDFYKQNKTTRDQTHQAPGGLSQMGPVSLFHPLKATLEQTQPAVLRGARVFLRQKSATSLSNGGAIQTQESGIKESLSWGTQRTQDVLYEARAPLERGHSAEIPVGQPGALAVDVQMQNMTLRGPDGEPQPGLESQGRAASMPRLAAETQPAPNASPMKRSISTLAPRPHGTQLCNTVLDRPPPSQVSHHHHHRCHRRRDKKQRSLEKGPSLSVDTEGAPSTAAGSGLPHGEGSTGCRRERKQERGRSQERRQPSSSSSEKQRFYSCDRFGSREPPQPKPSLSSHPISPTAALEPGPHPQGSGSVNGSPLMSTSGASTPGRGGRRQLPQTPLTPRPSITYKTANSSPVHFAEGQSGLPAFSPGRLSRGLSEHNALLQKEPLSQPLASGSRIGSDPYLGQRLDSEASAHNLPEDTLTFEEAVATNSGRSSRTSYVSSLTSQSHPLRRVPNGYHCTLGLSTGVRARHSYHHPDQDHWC

Like-named read-outs stand apart in the source and are kept apart here.

Regarding `CCO` [ethanol], the conditioned place preference result was “completely absent” in data set [1] (Cav2.2 null mice, 2 g/kg ethanol); “Neither genotype showed place preference or aversion” in data set [1] (both genotypes, 1.2 g/kg and 2.8 g/kg ethanol); “no conditioned place preference” in data set [1] (inbred 129/SvJae background, Cav2.2 null); “significant conditioned place preference” in data set [1] (inbred 129/SvJae background, wild-type, ethanol 1.5 g/kg); “robust place preference” in data set [1] (wild-type mice, 2 g/kg ethanol). Also, in data set [2] (3.6 g/kg ethanol i.p.), the “blood ethanol concentration at regaining righting reflex, Cav2.2 null vs wild-type” value was “higher blood ethanol concentration”. Moreover, the “decrease in duration of ethanol-induced LORR, Cav2.2 null vs wild-type” value in data set [2] (3.6 g/kg ethanol i.p.) came out at 70%. In addition, in data set [2] (10% v/v ethanol i.p., up-and-down method), the “increase in threshold ethanol dose that induces LORR, Cav2.2 null vs wild-type” value worked out at 16%. Besides, the “duration of ethanol-induced LORR” value in data set [2] (inbred 129/SvJae background, Cav2.2 null vs wild-type) is given as “decreased duration”. For the same compound, in data set [3], the “latency to fall, accelerating (4-40 rpm) rotarod” value is “shorter latency to fall”. In addition, the “conditioned taste aversion to 1.2% NaCl” value in data set [4] (2 g/kg ethanol injection, both genotypes) is “both genotypes rapidly developed conditioned taste aversion”. For the same compound, the “magnitude of conditioned taste aversion” value in data set [4] (2 g/kg ethanol, Cav2.2 null vs wild-type) was “reduced”. In addition, in data set [5], the “alcohol consumption, Cav2.2 null mice less than wild-type littermates” value is “about 30%”. Also, in data set [6], the “clearance of ethanol from the blood” value was “no difference between the genotypes”. Moreover, the “handling-induced convulsions during alcohol withdrawal” value in data set [7] is given as “increased handling-induced convulsions”. For the same compound, the “binding sites for 125I-ω-conotoxin GVIA” value at N-type calcium channel was “reversible time- and concentration-dependent increase”.
